{
  "source": "patent US4522815A",
  "about": "“Anthracycline glycosides” (priority 1982, dated 1985)",
  "key": {"ascitic P388 leukemia": {"system": "ascitic P388 leukemia", "test": "Antitumor activity against ascitic P388 leukemia in CDF-1 mice, treatment i.p. on day 1", "format": "in vivo", "details": "for LTS, long term survivors (≥ 60 days) / T/C, median survival time; % over untreated controls / Toxic deaths (autoptic findings on dead mice): Table 5", "protocol": "The primary screening […] was carried out in CDF-1 mice bearing ascitic P388 leukemia (10^6 cells/mouse). Both IIa and IIc were suspended in 10%. Tween 80 and injected intraperitoneally.\nResults of the primary screening \"in vivo\" carried out in CDF-1 mice bearing P388 ascitic leukemia and treated i.p. the day after tumor transplantation, are reported in Table 5.\nAntitumor activity against ascitic P388 leukekemia.\n(§1) Treatment i.p. on day 1.\n^a median survival time; % over untreated controls\n^b long term survivors (≥ 60 days)\n^c evaluated on the basis of autoptic findings on dead mice\n(§2) ^d data of two experiments (range)\n^e date of three experiments (range)\nAntitumor activity of Ib and Id against ascitic P388\nas §1"}, "Gross leukemia [1]": {"system": "Gross leukemia", "test": "Antitumor activity against i.v. transplanted Gross leukemia in C3H/Me mice, treatment i.v. on day 1", "format": "in vivo", "details": "for T/C, median survival time; % over untreated controls / Toxic deaths: Table 6", "description": "(§3) Results of studies performed in C3H/Me mice carrying i.v. transplanted Gross leukemia and treated i.v. the day after tumor transplantation, are reported in Table 6. […] The compounds Ib and Id were further investigated for oral activity on Gross leukemic transplanted i.v., in comparison with DNR, DX given i.v. and 4-dm DNR given oral route.\nAntitumor activity against i.v. Gross leukemia.\nTreatment i.v. on day 1."}, "[2]": {"system": "P388 leukemia cells resistant to DX (P388/DX)", "test": "Cytotoxicity on doxorubicin-resistant P388/DX leukemia cells in vitro, 48 hrs exposure", "format": "cell-based, mice", "protocol": "Compounds Ib and Id were studied \"in vitro\" on HeLa and P388 leukemia cells sensitive (P388) and resistant (P388/DX) to DX and […].\nCompound Ib was studied on P388/DX \"in vitro\".\nP388 and P388/DX leukemia cells were harvested from mice ascitic fluid and adapted to grow in suspension \"in vitro\". Cytotoxicity tests were carried out exposing the cells to various drug concentrations for 48 hrs; at the end of the exposure period, cells were counted with a coulter cell counter, and the ID50 (dose which gives 50% reduction of the cell number in comparison with untreated controls) was calculated.\nEffect on sensitive and doxorubicin-resistant P388\n^a Dose giving 50% reduction of cell number in comparison with\n^c P388 leukemia cells resistant to DX\n^d Ratio between ID50 on P388/DX and ID50 on P388"}, "Gross leukemia [3]": {"system": "Gross leukemia", "test": "Oral activity against i.v. transplanted Gross leukemia (i.v. comparators)", "format": "in vivo, C3H/Me mice", "details": "for T/C %, median survival time / Toxic deaths: Table 7, oral +1", "description": "as §3\nOral activity of Ib and Id against Gross leukemia\n^a days after transplantation\nas §2"}, "[4]": {"system": "P388 leukemia cells sensitive to DX", "test": "Cytotoxicity on doxorubicin-sensitive P388 leukemia cells in vitro, 48 hrs exposure", "format": "cell-based, mice", "description": "P388 and P388/DX leukemia cells were harvested from mice ascitic fluid and adapted to grow in suspension \"in vitro\"."}, "HeLa cells": {"system": "HeLa cells", "test": "Colony inhibition test against HeLa cells in vitro (cloning efficiency), treatment for 24 hrs", "format": "cell-based"}},
  "data": [
    {"molecule": "CC(=O)[C@]1(O)Cc2c(O)c3c(c(O)c2[C@@H](O[C@H]2C[C@H](O)[C@@H](O)[C@H](C)O2)C1)C(=O)c1ccccc1C3=O", "note": "[Compound Ib, 4-demethoxy-7-0-(2,6-dideoxy-α-L-arabino-hexopyranosyl)-daunomycinone]", "values": [
      {"measurement": "LTS, long term survivors (≥ 60 days)", "setting": "ascitic P388 leukemia; 1.25 mg/kg i.p. day 1", "value": "0/8"},
      {"measurement": "T/C, median survival time; % over untreated controls", "setting": "ascitic P388 leukemia; 1.25 mg/kg i.p. day 1", "value": 140, "unit": "%"},
      {"measurement": "Toxic deaths (autoptic findings on dead mice)", "setting": "ascitic P388 leukemia; 1.25 mg/kg i.p. day 1", "value": "0/8"},
      {"measurement": "LTS, long term survivors (≥ 60 days)", "setting": "ascitic P388 leukemia; 2.5 mg/kg i.p. day 1", "value": "0/9"},
      {"measurement": "T/C, median survival time; % over untreated controls", "setting": "ascitic P388 leukemia; 2.5 mg/kg i.p. day 1", "value": 163, "unit": "%"},
      {"measurement": "Toxic deaths (autoptic findings on dead mice)", "setting": "ascitic P388 leukemia; 2.5 mg/kg i.p. day 1", "value": "3/9"},
      {"measurement": "LTS, long term survivors (≥ 60 days)", "setting": "ascitic P388 leukemia; 5 mg/kg i.p. day 1", "value": "0/10"},
      {"measurement": "T/C, median survival time; % over untreated controls", "setting": "ascitic P388 leukemia; 5 mg/kg i.p. day 1", "value": 63, "unit": "%"},
      {"measurement": "Toxic deaths (autoptic findings on dead mice)", "setting": "ascitic P388 leukemia; 5 mg/kg i.p. day 1", "value": "10/10"},
      {"measurement": "times less potent than 4-dm DNR", "setting": "ascitic P388 leukemia; ascitic P388, i.p. day 1", "value": "about 1.5 times"},
      {"measurement": "times more potent than DNR", "setting": "ascitic P388 leukemia; ascitic P388, i.p. day 1", "value": 2, "unit": "times"},
      {"measurement": "antileukemia activity, comparison at the Mx TD", "setting": "ascitic P388 leukemia; vs DNR and 4-dm DNR", "value": "less active than DNR and 4-dm DNR"},
      {"measurement": "antitumor activity, comparison of the Mx TD", "setting": "Gross leukemia [1]; Gross leukemia, i.v. day 1", "value": "more active than DNR"},
      {"measurement": "toxicity and potency vs parent compounds", "setting": "Gross leukemia [1]; Gross leukemia, i.v. day 1", "value": "more toxic and more potent than the parent compounds"},
      {"measurement": "T/C, median survival time; % over untreated controls", "setting": "Gross leukemia [1]; 2.9 mg/kg i.v. day 1", "value": 214, "unit": "%"},
      {"measurement": "Toxic deaths", "setting": "Gross leukemia [1]; 2.9 mg/kg i.v. day 1", "value": "0/7"},
      {"measurement": "T/C, median survival time; % over untreated controls", "setting": "Gross leukemia [1]; 4.4 mg/kg i.v. day 1", "value": 100, "unit": "%"},
      {"measurement": "Toxic deaths", "setting": "Gross leukemia [1]; 4.4 mg/kg i.v. day 1", "value": "7/8"},
      {"measurement": "activity on P388/DX leukemia cells", "setting": "[2]; 48 hrs", "value": "very active"},
      {"measurement": "IC50", "setting": "[2]; Mus musculus, P388/DX, dose giving 50% reduction of cell number vs untreated controls, 48 hrs, read-out: ID50 P388/DX", "value": 0.03, "unit": "µg/mL"},
      {"measurement": "R: Ratio between ID50 on P388/DX and ID50 on P388", "setting": "[2]; Table 4, 2880 min", "value": 25},
      {"measurement": "T/C %, median survival time", "setting": "Gross leukemia [3]; 2.9 mg/kg", "value": 167, "unit": "%"},
      {"measurement": "Toxic deaths", "setting": "Gross leukemia [3]; 2.9 mg/kg", "value": "0/10"},
      {"measurement": "T/C %, median survival time", "setting": "Gross leukemia [3]; 4.4 mg/kg", "value": 208, "unit": "%"},
      {"measurement": "Toxic deaths", "setting": "Gross leukemia [3]; 4.4 mg/kg", "value": "0/10"},
      {"measurement": "T/C %, median survival time", "setting": "Gross leukemia [3]; 6.6 mg/kg", "value": 116, "unit": "%"},
      {"measurement": "Toxic deaths", "setting": "Gross leukemia [3]; 6.6 mg/kg", "value": "4/9"},
      {"measurement": "antitumor activity given orally at day 1", "setting": "Gross leukemia [3]; oral day 1, Gross leukemia, Id at the Mx TD vs DX i.v.", "value": "good antitumor activity when given orally at day 1, comparable to that of 4-dm DNR"},
      {"measurement": "IC50", "setting": "[4]; Mus musculus, P388, dose giving 50% reduction of cell number vs untreated controls, 48 hrs, read-out: ID50 P388", "value": 0.0012, "unit": "µg/mL"},
      {"measurement": "cytotoxicity on P388 leukemia cells", "setting": "[4]; vs DNR", "value": "about as cytotoxic as DNR"},
      {"measurement": "times less cytotoxic than 4-dm DNR", "setting": "HeLa cells; HeLa cells cloning efficiency, vs 4-dm DNR", "value": 6, "unit": "times"},
      {"measurement": "times less cytotoxic than DNR", "setting": "HeLa cells; HeLa cells cloning efficiency, vs DNR", "value": 3, "unit": "times"},
      {"measurement": "activity at 0.0015 µg/mL", "setting": "HeLa cells; Homo sapiens, HeLa, Table 3, 1.5 ng/ml, 24 hrs, read-out: No of colonies, % of untreated controls", "value": 107, "unit": "%"},
      {"measurement": "activity at 0.0062 µg/mL", "setting": "HeLa cells; Homo sapiens, HeLa, Table 3, 6.2 ng/ml, 24 hrs, read-out: No of colonies, % of untreated controls", "value": 87, "unit": "%"},
      {"measurement": "activity at 0.025 µg/mL", "setting": "HeLa cells; Homo sapiens, HeLa, Table 3, 25 ng/ml, 24 hrs, read-out: No of colonies, % of untreated controls", "value": 67, "unit": "%"},
      {"measurement": "activity at 0.1 µg/mL", "setting": "HeLa cells; Homo sapiens, HeLa, Table 3, 100 ng/ml, 24 hrs, read-out: No of colonies, % of untreated controls", "value": 0, "unit": "%"},
      {"measurement": "IC50", "setting": "HeLa cells; Homo sapiens, Table 3, HeLa colony inhibition, 24 hrs, read-out: ID50 (the source's name)", "value": "~0.035", "unit": "µg/mL"}
    ]}
  ]
}
